The record followed here is patent publication US7452887B2, “Quinoline- and isoquinoline-based compounds exhibiting ATP-utilizing enzyme inhibitory activity, and compositions, and uses thereof” (Amphora Discovery Corporation, priority 2004, dated 2008).

In the assay the target is MAPKAPK2 (Homo sapiens, UniProt P49137). Description: HTS ATP-utilizing enzyme assay, off-chip mobility-shift (Caliper HTS 250). Format: biochemical. The settings on record: test compound 10 μM, kinase listed = active (greater than six-sigma from the mean activity of inactive compounds). The text has this:
The following procedures describe the reagent and plate preparation for a HTS of an ATP-utilizing enzyme, such as a protein kinase, run in an off-chip mobility-shift assay format. The following provides an HTS protocol for running a protein kinase HTS screen on a Caliper HTS 250 microfluidics system. The following parameters are dependent on the protein kinase used and can be determined by one skilled in the art as part of a typical assay development process. For example, the peptide substrate used can be identified from the current literature, by screening a peptide library of potential protein kinase substrates, or by other applicable means accepted in the field.
The following table provides typical screen assay parameters appropriate for a Caliper HTS 250 microfluidics system.
The reagents and buffers listed in the following table are generally applicable for developing and running an HTS screen on a human protein kinase using the Caliper HTS 250 system.
The following reagents were prepared using the previously described buffers.
A 2× Master Buffer solution was prepared by combining 200 mL of 1 M HEPES, pH 7.5, 2 mL of 10% Triton X-100, 20 mL of 10% BSA, and 778 mL of H2O.
A TCB Buffer solution was prepared by combining 125 mL of 2× Master Buffer, 10 mL of 0.5 M EDTA, 6.25 mL of 4% coating reagent, 1.01 mL of 100% DMSO, and 107.74 mL H2O.
Assays to determine the kinase inhibitory activity of compounds of the present disclosure were performed using a Caliper HTS 250 microfluidics device, Greiner U-bottom assay plates, a Multidrop for transfer of reagents, and Biomek FX (AMNCBM03) software. Initially, 2.4 μL of a 1 mM solution of a test compound in 100% DMSO was added to a well of the Greiner U-bottom plate. A single Greiner U-bottom plate having 24×16 wells could include multiple test compounds. […] Using the Biomek FX, 10 μL of 0.5 M EDTA was added by the span-8 to wells, indicated as 100% Control and 2.4 μL of 100% DMSO was added by the span-8 to wells, indicated as 0% Control. […] The total reaction volume in each well was 25 μL, and the concentration of the test compound was 10 μM. The assay plate was incubated for 2.5 hrs at 20° C. to 22° C. […] The inhibition of the ATP-utilizing enzyme, such as a particular protein kinase, was determined by measuring the ratio of the peptide substrate to phosphorylated product for each well of the assay plate using the Caliper HTS 250 system.
The use of six-sigma statistical limits represents a conservative method for declaring potential hits among targets. The six-sigma activity, as well as the mean population activity, can be different for each target enzyme.

Sequence of MAPKAPK2 (P49137 whole entry): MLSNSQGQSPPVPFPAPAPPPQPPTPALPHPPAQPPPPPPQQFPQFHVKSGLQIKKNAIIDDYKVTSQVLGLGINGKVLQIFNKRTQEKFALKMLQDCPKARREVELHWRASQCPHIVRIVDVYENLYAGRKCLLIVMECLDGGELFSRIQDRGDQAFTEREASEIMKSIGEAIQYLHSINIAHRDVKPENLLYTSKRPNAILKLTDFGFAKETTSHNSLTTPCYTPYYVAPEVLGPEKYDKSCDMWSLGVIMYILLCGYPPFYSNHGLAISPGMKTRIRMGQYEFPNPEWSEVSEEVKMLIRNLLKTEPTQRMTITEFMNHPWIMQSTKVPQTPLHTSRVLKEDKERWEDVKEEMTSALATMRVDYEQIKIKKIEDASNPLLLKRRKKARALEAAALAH

Take `CC(=O)N1CCc2cc(-c3ccc4nccc(Nc5ccc(N6CCC(N(C)C)C6)cc5)c4c3)ccc21` (stereo not drawn) [1-(5-(4-(4-(3-(dimethylamino)pyrrolidin-1-yl)phenylamino)quinolin-6-yl)indolin-1-yl)ethanone]: the Activity result was “MAPKAPK2”.
Then `CN1CCN(c2ccc(Nc3ccnc4ccc(-c5ccccc5C(N)=O)cc34)cc2)CC1` [2-(4-(4-(4-methylpiperazin-1-yl)phenylamino)quinolin-6-yl)benzamide], with “MAPKAPK2”; and `CN(C)C(=O)CN1CCN(c2ccc(Nc3ccnc4ccc(-c5ccc(C#N)cc5)cc34)cc2)CC1` [2-(4-(4-(6-(4-cyanophenyl)quinolin-4-ylamino)phenyl)piperazin-1-yl)-N,N-dimethylacetamide], with “MAPKAPK2”.
For `COc1ccc(-c2ccc3nccc(Nc4ccc(N5CCN(CC(=O)N(C)C)CC5)cc4)c3c2)cc1` [2-(4-(4-(6-(4-methoxyphenyl)quinolin-4-ylamino)phenyl)piperazin-1-yl)-N,N-dimethylacetamide], the Activity result is reported as “MAPKAPK2”.
For the compound `COc1ccc(-c2ccc3nccc(Nc4ccc(N5CCN(CCO)CC5)cc4)c3c2)cc1` [2-(4-(4-(6-(4-methoxyphenyl)quinolin-4-ylamino)phenyl)piperazin-1-yl)ethanol], the Activity result is recorded as “MAPKAPK2”.
Consider `OCCN1CCN(c2ccc(Nc3ccnc4ccc(-c5ccccc5)cc34)cc2)CC1` [2-(4-(4-(6-phenylquinolin-4-ylamino)phenyl)piperazin-1-yl)ethanol], for which the Activity entry is “MAPKAPK2”.
On to `CN1CCN(c2ccc(Nc3ccnc4ccc(-c5ccc(CCC(=O)O)cc5)cc34)cc2)CC1` [3-(4-(4-(4-(4-methylpiperazin-1-yl)phenylamino)quinolin-6-yl)phenyl)propanoic acid], for which the Activity entry is “MAPKAPK2”.
For `COc1ccc(-c2ccc3nccc(Nc4ccc(N5CCN(CCC#N)CC5)cc4)c3c2)cc1` [3-(4-(4-(6-(4-methoxyphenyl)quinolin-4-ylamino)phenyl)piperazin-1-yl)propanenitrile] the value was “MAPKAPK2”; for `CN1CCC(c2ccc(Nc3ccnc4ccc(-c5ccc(C#N)cc5)cc34)cc2)CC1` [4-(4-(4-(1-methylpiperidin-4-yl)phenylamino)quinolin-6-yl)benzonitrile], “MAPKAPK2”.
For the compound `CN(C)CC1CCCN1c1ccc(Nc2ccnc3ccc(-c4ccc(C#N)cc4)cc23)cc1` (stereo not drawn) [4-(4-(4-(2-((dimethylamino)methyl)pyrrolidin-1-yl)phenylamino)quinolin-6-yl)benzonitrile], the Activity result is listed as “MAPKAPK2”.
Then `CN(C)CC1CCCN(c2ccc(Nc3ccnc4ccc(-c5ccc(C#N)cc5)cc34)cc2)C1` (stereo not drawn) [4-(4-(4-(3-((dimethylamino)methyl)piperidin-1-yl)phenylamino)quinolin-6-yl)benzonitrile], with “MAPKAPK2”.
For `CN(Cc1ccccc1)C1CCN(c2ccc(Nc3ccnc4ccc(-c5ccc(C#N)cc5)cc34)cc2)C1` (stereo not drawn) [4-(4-(4-(3-(benzyl(methyl)amino)pyrrolidin-1-yl)phenylamino)quinolin-6-yl)benzonitrile] the value was “MAPKAPK2”; for `CCN(CC)C1CCN(c2ccc(Nc3ccnc4ccc(-c5ccc(C#N)cc5)cc34)cc2)C1` (stereo not drawn) [4-(4-(4-(3-(diethylamino)pyrrolidin-1-yl)phenylamino)quinolin-6-yl)benzonitrile], “MAPKAPK2”; for `CN(C)C1CCCN(c2ccc(Nc3ccnc4ccc(-c5ccc(C#N)cc5)cc34)cc2)C1` (stereo not drawn) [4-(4-(4-(3-(dimethylamino)piperidin-1-yl)phenylamino)quinolin-6-yl)benzonitrile], “MAPKAPK2”.
With `CN(C)C1CCN(c2ccc(Nc3ccnc4ccc(-c5ccc(C#N)c(F)c5)cc34)cc2)C1` (stereo not drawn) [4-(4-(4-(3-(dimethylamino)pyrrolidin-1-yl)phenylamino)quinolin-6-yl)-2-fluorobenzonitrile], the Activity entry is recorded as “MAPKAPK2”.
For `Cc1cc(-c2ccc3nccc(Nc4ccc(N5CCC(N(C)C)C5)cc4)c3c2)ccc1C#N` (stereo not drawn) [4-(4-(4-(3-(dimethylamino)pyrrolidin-1-yl)phenylamino)quinolin-6-yl)-2-methylbenzonitrile] the value was “MAPKAPK2”; for `CN(CCC(F)(F)F)C1CCN(c2ccc(Nc3ccnc4ccc(-c5ccc(C#N)cc5)cc34)cc2)C1` (stereo not drawn) [4-(4-(4-(3-(methyl(3,3,3-trifluoropropyl)amino)pyrrolidin-1-yl)phenylamino)quinolin-6-yl)benzonitrile], “MAPKAPK2”; for `N#Cc1ccc(-c2ccc3nccc(Nc4ccc(N5CCN(CCO)CC5)cc4)c3c2)cc1` [4-(4-(4-(4-(2-hydroxyethyl)piperazin-1-yl)phenylamino)quinolin-6-yl)benzonitrile], “MAPKAPK2”.
Consider `COCCN1CCN(c2ccc(Nc3ccnc4ccc(-c5ccc(C#N)cc5)cc34)cc2)CC1` [4-(4-(4-(4-(2-methoxyethyl)piperazin-1-yl)phenylamino)quinolin-6-yl)benzonitrile], for which the Activity result is recorded as “MAPKAPK2”.
For `N#Cc1ccc(-c2ccc3nccc(Nc4ccc(N5CCN(CCCO)CC5)cc4)c3c2)cc1` [4-(4-(4-(4-(3-hydroxypropyl)piperazin-1-yl)phenylamino)quinolin-6-yl)benzonitrile] the value was “MAPKAPK2”.
Then `CN(C)CC1CCN(c2ccc(Nc3ccnc4ccc(-c5ccc(C#N)cc5)cc34)cc2)CC1` [4-(4-(4-(4-((dimethylamino)methyl)piperidin-1-yl)phenylamino)quinolin-6-yl)benzonitrile], with “MAPKAPK2”; and `CCC(CC)N1CCN(c2ccc(Nc3ccnc4ccc(-c5ccc(C#N)cc5)cc34)cc2)CC1` [4-(4-(4-(4-(pentan-3-yl)piperazin-1-yl)phenylamino)quinolin-6-yl)benzonitrile], with “MAPKAPK2”; and `C=CCN1CCN(c2ccc(Nc3ccnc4ccc(-c5ccc(C#N)cc5)cc34)cc2)CC1` [4-(4-(4-(4-allylpiperazin-1-yl)phenylamino)quinolin-6-yl)benzonitrile], with “MAPKAPK2”.
Regarding `CCCCN1CCN(c2ccc(Nc3ccnc4ccc(-c5ccc(C#N)cc5)cc34)cc2)CC1` [4-(4-(4-(4-butylpiperazin-1-yl)phenylamino)quinolin-6-yl)benzonitrile], the Activity entry is “MAPKAPK2”.
For `N#Cc1ccc(-c2ccc3nccc(Nc4ccc(N5CCN(C6CCCCC6)CC5)cc4)c3c2)cc1` [4-(4-(4-(4-cyclohexylpiperazin-1-yl)phenylamino)quinolin-6-yl)benzonitrile] the value was “MAPKAPK2”.
Then `N#Cc1ccc(-c2ccc3nccc(Nc4ccc(N5CCN(C6CCCC6)CC5)cc4)c3c2)cc1` [4-(4-(4-(4-cyclopentylpiperazin-1-yl)phenylamino)quinolin-6-yl)benzonitrile], with “MAPKAPK2”.
In the case of `CC(C)N1CCN(c2ccc(Nc3ccnc4ccc(-c5ccc(C#N)cc5)cc34)cc2)CC1` [4-(4-(4-(4-isopropylpiperazin-1-yl)phenylamino)quinolin-6-yl)benzonitrile], the Activity result was “MAPKAPK2”.
`CN1CCN(c2ccc(Oc3ccnc4ccc(-c5ccc(C#N)cc5)cc34)cc2)CC1` [4-(4-(4-(4-methylpiperazin-1-yl)phenoxy)quinolin-6-yl)benzonitrile]: the Activity result is given as “MAPKAPK2”.
For the compound `CC1CCN(c2ccc(Nc3ccnc4ccc(-c5ccc(C#N)cc5)cc34)cc2)CC1` [4-(4-(4-(4-methylpiperidin-1-yl)phenylamino)quinolin-6-yl)benzonitrile], the Activity result is “MAPKAPK2”.
Then `CN1CCC(N(C)c2ccc(Nc3ccnc4ccc(-c5ccc(C#N)cc5)cc34)cc2)C1` (stereo not drawn) [4-(4-(4-(methyl(1-methylpyrrolidin-3-yl)amino)phenylamino)quinolin-6-yl)benzonitrile], with “MAPKAPK2”; and `CN1CCN(c2ccc(Nc3ccnc4ccc(-c5ccc(C#N)cc5)cc34)nn2)CC1` [4-(4-(6-(4-methylpiperazin-1-yl)pyridazin-3-ylamino)quinolin-6-yl)benzonitrile], with “MAPKAPK2”; and `CN1CCN(c2ccc(Nc3ccnc4ccc(-c5ccc(C#N)cc5)cc34)cn2)CC1` [4-(4-(6-(4-methylpiperazin-1-yl)pyridin-3-ylamino)quinolin-6-yl)benzonitrile], with “MAPKAPK2”.
Turning to `CN(C)C1CCN(c2ccc(Nc3ccnc4ccc(-c5ccc6c(c5)CCC6=O)cc34)cc2)C1` (stereo not drawn) [5-(4-(4-(3-(dimethylamino)pyrrolidin-1-yl)phenylamino)quinolin-6-yl)-2,3-dihydroinden-1-one], the Activity result is listed as “MAPKAPK2”.
